Measurements published in EPA's ToxRefDB 2.

Legend:
dog [1] = settings: Subchronic oral toxicity in nonrodent, beagle, Feed, dose end: 90 day, group: systemic, systemic / clinical chemistry / alanine aminotransferase (alt/sgpt) / alanine aminotransferase (alt/sgpt) + systemic / clinical chemistry / …
dog [2] = settings: Chronic toxicity; beagle; Oral; Feed; dose end: 107 week; group: systemic; systemic / clinical chemistry / [other] / [other] + systemic / clinical chemistry / alanine aminotransferase (alt/sgpt) / alanine …
mouse [3] = settings: Carcinogenicity; cd1; Oral; Feed; dose end: 80 week; group: systemic; systemic / pathology microscopic / liver / hypertrophy + systemic / pathology microscopic / liver / infiltration cellular + systemic / …
rat [4] = settings: Multigenerational reproductive toxicity study, sprague dawley, Oral, Feed, dose end: 2 generation
rat [5] = settings: Combined chronic toxicity/carcinogenicity, wistar, Oral, Feed, dose end: 24 month, group: systemic
rat [6] = settings: Subchronic oral toxicity in rodents, other, Feed, dose end: 90 day, group: systemic, systemic / in life observation / body weight / body weight gain + systemic / organ weight / kidney / nos + systemic / organ weight / liver…
rat [7] = settings: Prenatal developmental toxicity study, wistar, Oral, Gavage/Intubation, dose end: 20 GD
primate = settings: Subchronic oral toxicity in nonrodent, macaque, Gavage/Intubation, dose end: 13 week
rat [8] = settings: Sub-acute repeat dose toxicity, wistar, Oral, Gavage/Intubation, dose end: 33 day, group: systemic
mouse [9] = settings: Combined chronic toxicity/carcinogenicity, cd1, Oral, Gavage/Intubation, dose end: 104 week, group: systemic
rat [10] = settings: Chronic toxicity; wistar; Oral; Gavage/Intubation; dose end: 27 week; group: systemic; systemic / clinical chemistry / bile acids / bile acids + systemic / clinical chemistry / cholesterol / cholesterol + systemic / clinical …
rat [11] = settings: Combined chronic toxicity/carcinogenicity; wistar; Oral; Gavage/Intubation; dose end: 104 week; group: systemic; systemic / in life observation / mortality / mortality + systemic / pathology microscopic / intestine large / [other] + systemic / pathology…
[12] = group: offspring, systemic / in life observation / body weight / offspring (pup) weight + systemic / in life observation / body weight / offspring (pup) …
[13] = group: parental, systemic / organ weight / kidney / absolute + systemic / organ weight / kidney / relative to body weight + systemic / organ weight / liver…
[14] = systemic / in life observation / body weight / body weight gain + systemic / pathology microscopic / brain / vacuolization + systemic / …
[15] = systemic / pathology microscopic / spleen / hemosiderosis + systemic / pathology microscopic / uterus / adenocarcinoma
[16] = group: developmental, developmental / developmental malformation / bone / short supernumerary
[17] = group: developmental, developmental / developmental malformation / bone / short supernumerary + systemic / in life observation / body weight / fetal weight
[18] = group: maternal, systemic / in life observation / body weight / body weight gain + systemic / in life observation / food consumption / food consumption
[19] = group: maternal, reproductive / reproductive performance / estrous cycle / abnormal
[20] = group: systemic, systemic / clinical chemistry / gamma glutamyl transferase (ggt) / gamma glutamyl transferase (ggt) + systemic / clinical chemistry / …
[21] = systemic / clinical chemistry / albumin / albumin + systemic / clinical chemistry / chloride / chloride + systemic / clinical chemistry / …
[22] = systemic / clinical chemistry / potassium / potassium + systemic / clinical chemistry / triglycerides / triglycerides + systemic / organ …
[23] = systemic / pathology microscopic / gallbladder / adenoma + systemic / pathology microscopic / gallbladder / hemangioma + systemic / …
[24] = systemic / pathology microscopic / gallbladder / adenoma + systemic / pathology microscopic / gallbladder / hyperplasia + systemic / …

Molecule `Nc1c(Cl)cc([N+](=O)[O-])cc1Cl` [Dicloran] has an LEL (dog [1]) of 75 mg/kg/day, an LOAEL (dog [1]) of 75 mg/kg/day and an NEL (dog [1]) of 2.5 mg/kg/day. For the same molecule, the NOAEL (dog [1]) was 2.5 mg/kg/day, the LEL (dog [2]) was 75 mg/kg/day and the LOAEL (dog [2]) was 75 mg/kg/day. For the same molecule, the NEL (dog [2]) was 2.5 mg/kg/day, the NOAEL (dog [2]) was 2.5 mg/kg/day and the LEL (mouse [3]) was 86.5 mg/kg/day. For the same molecule, the LOAEL (mouse [3]) was 86.5 mg/kg/day, the NEL (mouse [3]) was 24.5 mg/kg/day and the NOAEL (mouse [3]) was 24.5 mg/kg/day. It also gave an LEL (rat [4]; [12]) of 87 mg/kg/day, an LOAEL (rat [4]; [12]) of 87 mg/kg/day and an NEL (rat [4]; [12]) of 16.9 mg/kg/day. The NOAEL (rat [4]; [12]) was 16.9 mg/kg/day, the NEL (rat [4]; group: parental, systemic / in life observation / clinical signs / discharge on cageboard) was 16.9 mg/kg/day and the LEL (rat [4]; [13]) was 87 mg/kg/day. The LOAEL (rat [4]; [13]) was 87 mg/kg/day, the NOAEL (rat [4]; [13]) was 16.9 mg/kg/day and the LOAEL (rat [5]; [14]) was 71 mg/kg/day. The NOAEL (rat [5]; [14]) was 11.3 mg/kg/day, the LEL (rat [5]; [15]) was 3.7 mg/kg/day and the NEL (rat [5]; [15]) was less than 3.7 mg/kg/day. It also gave an LEL (rat [6]) of 150 mg/kg/day, an LOAEL (rat [6]) of 150 mg/kg/day and an NEL (rat [6]) of 5 mg/kg/day. It also gave an NOAEL (rat [6]) of 5 mg/kg/day, an LEL (rat [7]; [16]) of 50 mg/kg/day and an NEL (rat [7]; [16]) of less than 50 mg/kg/day. The LOAEL (rat [7]; [17]) was 100 mg/kg/day, the NOAEL (rat [7]; [17]) was 50 mg/kg/day and the LEL (rat [7]; [18]) was 50 mg/kg/day. For the same molecule, the LOAEL (rat [7]; [18]) was 50 mg/kg/day, the NEL (rat [7]; [18]) was less than 50 mg/kg/day and the NOAEL (rat [7]; [18]) was less than 50 mg/kg/day.
With `Cc1oc(-c2ccccc2)nc1CCOc1ccc(C[C@H](Nc2ccccc2C(=O)c2ccccc2)C(=O)O)cc1` [Farglitazar] the LEL (primate; [19]) was 50 mg/kg/day, the LOAEL (primate; [19]) was greater than 50 mg/kg/day and the NEL (primate; [19]) was 5 mg/kg/day. For the same molecule, the NOAEL (primate; [19]) was no less than 50 mg/kg/day, the LEL (primate; [20]) was 0.5 mg/kg/day and the LOAEL (primate; [20]) was greater than 50 mg/kg/day. For the same molecule, the NEL (primate; [20]) was less than 0.5 mg/kg/day, the NOAEL (primate; [20]) was no less than 50 mg/kg/day and the LOAEL (rat [8]; [21]) was greater than 500 mg/kg/day. The NOAEL (rat [8]; [21]) was no less than 500 mg/kg/day, the LEL (rat [8]; [22]) was 0.5 mg/kg/day and the NEL (rat [8]; [22]) was less than 0.5 mg/kg/day. For the same molecule, the LOAEL (mouse [9]; [23]) was greater than 50 mg/kg/day, the NOAEL (mouse [9]; [23]) was no less than 50 mg/kg/day and the LEL (mouse [9]; [24]) was 1 mg/kg/day. For the same molecule, the NEL (mouse [9]; [24]) was less than 1 mg/kg/day, the LEL (rat [10]) was 0.5 mg/kg/day and the LOAEL (rat [10]) was greater than 50 mg/kg/day. The NEL (rat [10]) was less than 0.5 mg/kg/day, the NOAEL (rat [10]) was no less than 50 mg/kg/day and the LEL (rat [11]) was 0.5 mg/kg/day. It also gave an LOAEL (rat [11]) greater than 20 mg/kg/day, an NEL (rat [11]) of less than 0.5 mg/kg/day and an NOAEL (rat [11]) of no less than 20 mg/kg/day.
